Source: ChEMBL document CHEMBL1201862, “PubChem BioAssay data set” (2004)
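All cell lines were grown in 96-well plates and treated with compound for 48 hours. GI50: concentration for 50% inhibition of growth.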 Activity calls are given as the source filed them. No stated cut-off is given here; in the data, active = GI50 up to about 1.1 µM and inactive = higher.

Columns and labels:
Test in all cases: DTP human tumour cell line panel, 48 h
[1] = test system: NCI/ADR-RES
[2] = test system: SF-268
[3] = test system: MDA-N
[4] = test system: U-251
[5] = test system: OVCAR-8
[6] = test system: HCT-116
[7] = test system: RXF 393
[8] = test system: HL-60
[9] = test system: NCI-H23
[10] = test system: UACC-62
[11] = test system: SN12C
[12] = test system: K562
[13] = test system: CCRF-CEM
[14] = test system: SK-MEL-28
[15] = test system: M14
[16] = test system: TK-10
[17] = test system: SK-OV-3
[18] = test system: OVCAR-3
[19] = test system: SR
[20] = test system: Malme-3M

SMILES	GI50 [1]	GI50 [2]	GI50 [3]	GI50 [4]	GI50 [5]	GI50 [6]	GI50 [7]	GI50 [8]	GI50 [9]	GI50 [10]	GI50 [11]	GI50 [12]	GI50 [13]	GI50 [14]	GI50 [15]	GI50 [16]	GI50 [17]	GI50 [18]	GI50 [19]	GI50 [20]
Nc1ccc(S(=O)(=O)NCc2nccs2)cc1	23.8 µM (inactive)	18.6 µM (inactive)	22.3 µM (inactive)	21.8 µM (inactive)	32.7 µM (inactive)	19 µM (inactive)	29.9 µM (inactive)	20.4 µM (inactive)	22.4 µM (inactive)	17.5 µM (inactive)	19.2 µM (inactive)	23.5 µM (inactive)	18.2 µM (inactive)	18.1 µM (inactive)	18.2 µM (inactive)	22.2 µM (inactive)	32.3 µM (inactive)	34 µM (inactive)	31 µM (inactive)	–
NNC(=O)c1cc(Cl)ccc1NC(=O)C12CC3CC(CC(C3)C1)C2	34.8 µM (inactive)	20.2 µM (inactive)	26.2 µM (inactive)	31.4 µM (inactive)	30.4 µM (inactive)	25.2 µM (inactive)	37.8 µM (inactive)	23 µM (inactive)	37.6 µM (inactive)	24.1 µM (inactive)	20.5 µM (inactive)	29.2 µM (inactive)	–	29.9 µM (inactive)	14.1 µM (inactive)	28.4 µM (inactive)	28.7 µM (inactive)	25.5 µM (inactive)	14.4 µM (inactive)	23.6 µM (inactive)
COC(=O)c1c2c(cc3c1CC1(Cc4cc5c(c(C=O)c4C1)CCCC5)C3)CCCC2 (configuration not stated)	94.6 µM (inactive)	–	89.3 µM (inactive)	43.8 µM (inactive)	87.5 µM (inactive)	23.3 µM (inactive)	32.7 µM (inactive)	30 µM (inactive)	57.9 µM (inactive)	23.5 µM (inactive)	70 µM (inactive)	33.2 µM (inactive)	–	–	> 100 µM (inactive)	97.9 µM (inactive)	> 100 µM (inactive)	29.9 µM (inactive)	36.8 µM (inactive)	> 100 µM (inactive)
O=C1CCCC2C3CC(CN12)C1CCCCN1C3.[O-][Cl+3]([O-])([O-])O (configuration not stated)	> 100 µM (inactive)	> 100 µM (inactive)	> 100 µM (inactive)	> 100 µM (inactive)	> 100 µM (inactive)	> 100 µM (inactive)	> 100 µM (inactive)	> 100 µM (inactive)	> 100 µM (inactive)	> 100 µM (inactive)	> 100 µM (inactive)	–	> 100 µM (inactive)	> 100 µM (inactive)	> 100 µM (inactive)	> 100 µM (inactive)	> 100 µM (inactive)	> 100 µM (inactive)	> 100 µM (inactive)	> 100 µM (inactive)
C[C@@H](c1ccccc1)C(CC#N)[C@H]1CCC[C@]1(O)C#Cc1ccc2c(c1)OCO2 (some centres not stated)	16 µM (inactive)	19.6 µM (inactive)	16.7 µM (inactive)	16.9 µM (inactive)	16.9 µM (inactive)	–	14.4 µM (inactive)	18.3 µM (inactive)	17.7 µM (inactive)	16.6 µM (inactive)	–	18.1 µM (inactive)	14.8 µM (inactive)	16.1 µM (inactive)	16.9 µM (inactive)	16 µM (inactive)	18.1 µM (inactive)	15.6 µM (inactive)	19.7 µM (inactive)	15.8 µM (inactive)
C=C1C(=O)O[C@H]2C[C@@H]1C(=O)CC(C)CCCC(C)=CCC[C@@]2(C)O (some centres not stated)	> 25 µM (inactive)	> 25 µM (inactive)	> 25 µM (inactive)	> 25 µM (inactive)	> 25 µM (inactive)	> 25 µM (inactive)	> 25 µM (inactive)	> 25 µM (inactive)	> 25 µM (inactive)	> 25 µM (inactive)	> 25 µM (inactive)	–	> 25 µM (inactive)	> 25 µM (inactive)	> 25 µM (inactive)	> 25 µM (inactive)	> 25 µM (inactive)	> 25 µM (inactive)	16.8 µM (inactive)	> 25 µM (inactive)
COc1cc2c(cc1OC)CCN=C2	> 100 µM (inactive)	–	> 100 µM (inactive)	> 100 µM (inactive)	> 100 µM (inactive)	> 100 µM (inactive)	56.6 µM (inactive)	> 100 µM (inactive)	> 100 µM (inactive)	> 100 µM (inactive)	> 100 µM (inactive)	–	> 100 µM (inactive)	> 100 µM (inactive)	> 100 µM (inactive)	> 100 µM (inactive)	> 100 µM (inactive)	> 100 µM (inactive)	> 100 µM (inactive)	> 100 µM (inactive)
[O-][S@@+]1c2ccc3ccccc3c2N[C@@H]2[C@H]1[C@H]1C=C[C@@H]2C1	25.8 µM (inactive)	61 µM (inactive)	20.8 µM (inactive)	76.4 µM (inactive)	35.8 µM (inactive)	39.5 µM (inactive)	19.5 µM (inactive)	24 µM (inactive)	35.3 µM (inactive)	84.1 µM (inactive)	53.7 µM (inactive)	37.1 µM (inactive)	23.6 µM (inactive)	98.6 µM (inactive)	48.4 µM (inactive)	51.1 µM (inactive)	42.1 µM (inactive)	11.9 µM (inactive)	30 µM (inactive)	58.9 µM (inactive)
O=C(O)c1ccccc1/C=C1\Cc2ccccc2C1=O	> 100 µM (inactive)	> 100 µM (inactive)	> 100 µM (inactive)	> 100 µM (inactive)	> 100 µM (inactive)	> 100 µM (inactive)	> 100 µM (inactive)	> 100 µM (inactive)	> 100 µM (inactive)	> 100 µM (inactive)	> 100 µM (inactive)	> 100 µM (inactive)	> 100 µM (inactive)	> 100 µM (inactive)	> 100 µM (inactive)	> 100 µM (inactive)	–	> 100 µM (inactive)	> 100 µM (inactive)	> 100 µM (inactive)
CCCC[C@@H](C)/C=C1\CN2CCC[C@H]2[C@@](C)(O)[C@@H]1O	58.9 µM (inactive)	44.7 µM (inactive)	> 100 µM (inactive)	66.2 µM (inactive)	65.5 µM (inactive)	–	0.0292 µM (active)	1.92 µM (inactive)	32.9 µM (inactive)	38.7 µM (inactive)	–	> 100 µM (inactive)	12.3 µM (inactive)	> 100 µM (inactive)	53 µM (inactive)	> 100 µM (inactive)	73.3 µM (inactive)	> 100 µM (inactive)	9.2 µM (inactive)	> 100 µM (inactive)
Oc1cc(-c2ccccc2)cn2c1nc1ccccc12	1.21 µM (inactive)	3.92 µM (inactive)	0.253 µM (active)	2.51 µM (inactive)	2.42 µM (inactive)	0.767 µM (active)	> 22 µM (inactive)	0.482 µM (active)	6.37 µM (inactive)	0.33 µM (active)	4.06 µM (inactive)	0.525 µM (active)	3.4 µM (inactive)	4.31 µM (inactive)	0.9 µM (active)	> 100 µM (inactive)	1.09 µM (active)	1.22 µM (inactive)	3.21 µM (inactive)	1.41 µM (inactive)
O=c1[nH]nc(-c2ccccc2)n1/N=C\c1ccccc1	> 100 µM (inactive)	31 µM (inactive)	> 100 µM (inactive)	> 100 µM (inactive)	> 100 µM (inactive)	> 100 µM (inactive)	13.2 µM (inactive)	> 100 µM (inactive)	> 100 µM (inactive)	> 100 µM (inactive)	> 100 µM (inactive)	> 100 µM (inactive)	> 100 µM (inactive)	> 100 µM (inactive)	–	> 100 µM (inactive)	–	> 100 µM (inactive)	> 100 µM (inactive)	> 100 µM (inactive)
Cc1nc2ccc(NC(=S)Nc3ccccc3)cc2c(=O)n1-c1ccccc1	> 100 µM (inactive)	> 100 µM (inactive)	> 100 µM (inactive)	57.7 µM (inactive)	> 100 µM (inactive)	> 100 µM (inactive)	> 100 µM (inactive)	31.8 µM (inactive)	> 100 µM (inactive)	> 100 µM (inactive)	> 100 µM (inactive)	46.3 µM (inactive)	–	62.2 µM (inactive)	–	> 100 µM (inactive)	–	> 100 µM (inactive)	> 100 µM (inactive)	> 100 µM (inactive)
CC(O[Si](c1ccccc1)(c1ccccc1)C(C)(C)C)[C@H](NC(=O)OC(C)(C)C)C(=O)O[Si](c1ccccc1)(c1ccccc1)C(C)(C)C (some centres not stated)	14.4 µM (inactive)	14.3 µM (inactive)	18.8 µM (inactive)	14.4 µM (inactive)	15.6 µM (inactive)	11.2 µM (inactive)	13 µM (inactive)	14.4 µM (inactive)	11.7 µM (inactive)	–	–	13.2 µM (inactive)	20 µM (inactive)	14.3 µM (inactive)	15.7 µM (inactive)	16.9 µM (inactive)	16.3 µM (inactive)	–	12.3 µM (inactive)	16.5 µM (inactive)
Nc1ccc2c(c1)CN1C(=O)c3ccccc3C1=N2 [DANIQUIDONE]	66.1 µM (inactive)	29 µM (inactive)	49.4 µM (inactive)	27.7 µM (inactive)	22 µM (inactive)	16.7 µM (inactive)	34.4 µM (inactive)	8.3 µM (inactive)	69 µM (inactive)	32.6 µM (inactive)	33.3 µM (inactive)	67.5 µM (inactive)	10.7 µM (inactive)	> 119 µM (inactive)	104 µM (inactive)	36.4 µM (inactive)	–	40.9 µM (inactive)	18.7 µM (inactive)	67 µM (inactive)
